US9174973B2, “Crystalline forms of azilsartan and preparation and uses thereof” (SUNSHINE LAKE PHARMA CO., LTD., priority 2011, dated 2015)

Assay: solubility test of crystalline forms in 0.1M HCl (Chinese Pharmacopoeia 2010)
Format: physicochemical
Settings: 300 mg sample in 6 mL 0.1M HCl, 25° C.±2° C., 30 minutes, observed with eyes
Protocol: The solubility of crystalline forms A, B, C and D was measured in accordance with the solubility test described in “Chinese Pharmacopoeia 2010”, Topic and Requirement 15. A crystalline form of azilsartan was grinded into powder. The powder (300 mg) was added to 6 ml of 0.1M HCl as the solvent at 25° C.±2° C. […] The total test time was 30 minutes. The solid was deemed as dissolved when no solid was detected in the mixture by human eyes. The solubility data of crystalline forms A, B, C and D of azilsartan are as shown below.

Structure (SMILES): CCOc1nc2cccc(C(=O)O)c2n1Cc1ccc(-c2ccccc2-c2noc(=O)[nH]2)cc1 [Form D]
- Result (solubility): dissolved
